The target of one data set is T1, hA3AR (Homo sapiens, UniProt P0DMS8).
T1 sequence (P0DMS8 1-318): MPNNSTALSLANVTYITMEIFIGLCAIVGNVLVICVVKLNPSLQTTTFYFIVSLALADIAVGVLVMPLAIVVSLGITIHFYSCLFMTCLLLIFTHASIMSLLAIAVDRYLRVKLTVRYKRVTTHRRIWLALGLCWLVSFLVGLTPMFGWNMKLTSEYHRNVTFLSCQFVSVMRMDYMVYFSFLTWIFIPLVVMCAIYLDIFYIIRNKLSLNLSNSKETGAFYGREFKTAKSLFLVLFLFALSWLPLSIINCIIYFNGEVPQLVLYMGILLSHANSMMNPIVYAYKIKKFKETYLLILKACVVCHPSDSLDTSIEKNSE
Put plainly: cAMP functional assay in CHO-A3 cells. The settings on record: 10 μM.

A further data set concerns the target hA2AAR (Homo sapiens, UniProt P29274). Description: cAMP functional assay in CHO-A2A cells. The settings on record: 10 μM.
A further data set concerns the target CYP2D6 (Homo sapiens, UniProt P10635). Description: CYP isoform inhibition. In kind it is in vitro ADME.
The next data set deals with hERG K+ channels (Homo sapiens, UniProt Q12809). Description: hERG K+ channel inhibition. The data set is classed as in vitro ADME. On the technique in general: hERG is a cardiac potassium channel; its block is linked to QT prolongation.
hERG K+ channels, sequence (Q12809 whole entry): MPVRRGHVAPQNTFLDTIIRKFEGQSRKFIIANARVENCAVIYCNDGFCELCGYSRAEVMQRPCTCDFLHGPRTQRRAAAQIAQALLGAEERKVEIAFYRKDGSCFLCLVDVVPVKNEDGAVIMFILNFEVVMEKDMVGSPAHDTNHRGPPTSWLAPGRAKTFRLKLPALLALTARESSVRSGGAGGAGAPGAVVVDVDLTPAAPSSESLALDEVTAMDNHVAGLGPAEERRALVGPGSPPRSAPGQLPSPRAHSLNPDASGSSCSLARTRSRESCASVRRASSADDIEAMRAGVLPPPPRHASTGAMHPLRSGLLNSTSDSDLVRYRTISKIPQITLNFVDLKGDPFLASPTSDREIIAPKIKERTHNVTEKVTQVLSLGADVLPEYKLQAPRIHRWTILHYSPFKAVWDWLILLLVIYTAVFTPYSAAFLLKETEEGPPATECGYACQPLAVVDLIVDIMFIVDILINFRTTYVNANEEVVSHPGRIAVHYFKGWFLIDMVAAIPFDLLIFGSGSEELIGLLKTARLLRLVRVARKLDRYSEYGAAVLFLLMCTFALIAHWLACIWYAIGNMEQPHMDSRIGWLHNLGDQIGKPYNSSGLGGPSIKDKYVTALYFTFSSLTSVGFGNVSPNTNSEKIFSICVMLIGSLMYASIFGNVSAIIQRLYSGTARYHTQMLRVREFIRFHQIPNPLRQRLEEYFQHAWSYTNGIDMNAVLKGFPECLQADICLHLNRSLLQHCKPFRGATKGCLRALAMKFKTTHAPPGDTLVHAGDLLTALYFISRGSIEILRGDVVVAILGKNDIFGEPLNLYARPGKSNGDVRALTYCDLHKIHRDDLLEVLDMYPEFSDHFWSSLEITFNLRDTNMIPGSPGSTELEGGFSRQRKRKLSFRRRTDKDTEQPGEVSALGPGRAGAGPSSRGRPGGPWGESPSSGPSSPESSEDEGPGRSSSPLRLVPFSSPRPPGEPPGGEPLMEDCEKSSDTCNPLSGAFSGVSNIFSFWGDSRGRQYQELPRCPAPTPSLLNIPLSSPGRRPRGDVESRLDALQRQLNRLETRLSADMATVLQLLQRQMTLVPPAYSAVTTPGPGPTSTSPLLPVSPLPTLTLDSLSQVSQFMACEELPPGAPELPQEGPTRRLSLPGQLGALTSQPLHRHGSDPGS
The next data set addresses T2, CYP1A2 (Homo sapiens, UniProt P05177).
T2 sequence (P05177 1-516): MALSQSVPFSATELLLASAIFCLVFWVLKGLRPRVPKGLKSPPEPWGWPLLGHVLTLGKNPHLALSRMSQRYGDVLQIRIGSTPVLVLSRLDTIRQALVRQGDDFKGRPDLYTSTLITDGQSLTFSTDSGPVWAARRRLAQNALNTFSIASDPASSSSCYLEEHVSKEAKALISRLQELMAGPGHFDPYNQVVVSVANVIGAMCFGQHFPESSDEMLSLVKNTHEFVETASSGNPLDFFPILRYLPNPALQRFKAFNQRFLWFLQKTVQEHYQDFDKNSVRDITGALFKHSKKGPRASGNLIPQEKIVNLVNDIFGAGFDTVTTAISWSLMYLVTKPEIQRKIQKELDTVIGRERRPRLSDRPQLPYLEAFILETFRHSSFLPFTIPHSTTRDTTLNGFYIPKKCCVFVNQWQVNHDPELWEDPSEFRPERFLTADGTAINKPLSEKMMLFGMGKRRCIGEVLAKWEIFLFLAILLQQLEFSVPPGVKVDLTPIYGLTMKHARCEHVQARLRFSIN
Description: CYP isoform inhibition. The data set is classed as in vitro ADME.

The target of another data set is CYP2C9 (Homo sapiens, UniProt P11712). Description: CYP isoform inhibition. In kind it is in vitro ADME.
CYP2C9, sequence (P11712 whole entry, species assumed, canonical isoform): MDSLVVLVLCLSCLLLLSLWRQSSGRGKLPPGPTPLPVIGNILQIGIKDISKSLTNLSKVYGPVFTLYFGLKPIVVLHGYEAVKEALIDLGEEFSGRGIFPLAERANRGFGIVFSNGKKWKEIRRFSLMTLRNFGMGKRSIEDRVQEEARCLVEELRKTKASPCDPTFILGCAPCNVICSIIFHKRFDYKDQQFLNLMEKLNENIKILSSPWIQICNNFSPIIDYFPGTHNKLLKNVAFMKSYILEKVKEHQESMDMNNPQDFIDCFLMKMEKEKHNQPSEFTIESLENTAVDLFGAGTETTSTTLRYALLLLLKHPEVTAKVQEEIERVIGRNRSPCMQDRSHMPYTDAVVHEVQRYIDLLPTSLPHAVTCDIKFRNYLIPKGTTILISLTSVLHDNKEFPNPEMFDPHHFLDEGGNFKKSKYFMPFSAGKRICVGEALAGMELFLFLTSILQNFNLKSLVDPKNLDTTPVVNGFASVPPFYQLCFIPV
Another data set concerns 4T1-Luc tumors. Put plainly: In vivo antitumor activity in 4T1-Luc tumor-bearing mice. The settings on record: 10 mg/kg i.p., alone or with anti-PD-L1.
In another data set the target is CYP3A4 (Homo sapiens, UniProt P08684). Put plainly: CYP isoform inhibition. The data set is classed as in vitro ADME.
CYP3A4, sequence (P08684 whole entry, species assumed, canonical isoform): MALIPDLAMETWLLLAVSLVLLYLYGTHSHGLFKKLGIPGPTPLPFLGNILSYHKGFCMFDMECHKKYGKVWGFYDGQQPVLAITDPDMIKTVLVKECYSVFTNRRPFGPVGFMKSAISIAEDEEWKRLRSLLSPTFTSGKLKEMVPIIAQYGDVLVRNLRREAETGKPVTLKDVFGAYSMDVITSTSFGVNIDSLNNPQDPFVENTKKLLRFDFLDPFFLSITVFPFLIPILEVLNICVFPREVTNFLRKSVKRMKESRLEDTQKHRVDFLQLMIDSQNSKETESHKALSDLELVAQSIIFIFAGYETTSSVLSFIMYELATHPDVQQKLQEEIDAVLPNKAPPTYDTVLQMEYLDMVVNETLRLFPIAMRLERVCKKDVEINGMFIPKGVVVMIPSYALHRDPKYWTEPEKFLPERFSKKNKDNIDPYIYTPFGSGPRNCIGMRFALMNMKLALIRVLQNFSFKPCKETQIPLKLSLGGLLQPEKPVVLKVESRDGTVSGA
The next data set has as its target CYP2C19 (Homo sapiens, UniProt P33261). Description: CYP isoform inhibition. The data set is classed as in vitro ADME.

The record followed here is PMC10896643 (Journal of medicinal chemistry, 2023).

SMILES strings stand for the structures. “Also recorded” adds a separate entry of the source.

CYP2D6, sequence (P10635 whole entry, species assumed, canonical isoform): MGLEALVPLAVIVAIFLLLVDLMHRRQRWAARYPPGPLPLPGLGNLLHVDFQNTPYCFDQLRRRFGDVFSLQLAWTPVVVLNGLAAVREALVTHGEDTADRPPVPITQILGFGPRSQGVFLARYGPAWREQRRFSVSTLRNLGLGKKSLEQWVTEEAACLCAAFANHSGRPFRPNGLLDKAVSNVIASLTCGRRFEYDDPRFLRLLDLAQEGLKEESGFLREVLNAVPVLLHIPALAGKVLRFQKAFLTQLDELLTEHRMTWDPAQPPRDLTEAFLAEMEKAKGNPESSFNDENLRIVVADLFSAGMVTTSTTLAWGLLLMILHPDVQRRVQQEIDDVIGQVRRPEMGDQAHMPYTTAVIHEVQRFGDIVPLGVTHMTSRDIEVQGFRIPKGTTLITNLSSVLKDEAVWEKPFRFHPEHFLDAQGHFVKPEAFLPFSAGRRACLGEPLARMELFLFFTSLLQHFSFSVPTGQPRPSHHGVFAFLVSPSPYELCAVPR
CYP2C19, sequence (P33261 whole entry, species assumed, canonical isoform): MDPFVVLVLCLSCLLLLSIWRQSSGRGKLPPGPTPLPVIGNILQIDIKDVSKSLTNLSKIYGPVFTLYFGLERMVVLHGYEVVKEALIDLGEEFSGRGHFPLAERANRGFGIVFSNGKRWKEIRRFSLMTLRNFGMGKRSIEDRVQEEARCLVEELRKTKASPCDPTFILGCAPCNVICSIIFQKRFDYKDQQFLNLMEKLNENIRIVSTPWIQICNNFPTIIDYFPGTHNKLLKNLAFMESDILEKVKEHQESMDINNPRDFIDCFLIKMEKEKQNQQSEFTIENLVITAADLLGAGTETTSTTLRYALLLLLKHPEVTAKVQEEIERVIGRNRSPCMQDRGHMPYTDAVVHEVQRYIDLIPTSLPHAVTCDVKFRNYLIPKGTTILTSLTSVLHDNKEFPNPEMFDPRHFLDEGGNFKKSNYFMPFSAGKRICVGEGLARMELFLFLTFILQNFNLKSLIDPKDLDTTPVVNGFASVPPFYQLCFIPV
hA2AAR, sequence (P29274 whole entry, canonical isoform): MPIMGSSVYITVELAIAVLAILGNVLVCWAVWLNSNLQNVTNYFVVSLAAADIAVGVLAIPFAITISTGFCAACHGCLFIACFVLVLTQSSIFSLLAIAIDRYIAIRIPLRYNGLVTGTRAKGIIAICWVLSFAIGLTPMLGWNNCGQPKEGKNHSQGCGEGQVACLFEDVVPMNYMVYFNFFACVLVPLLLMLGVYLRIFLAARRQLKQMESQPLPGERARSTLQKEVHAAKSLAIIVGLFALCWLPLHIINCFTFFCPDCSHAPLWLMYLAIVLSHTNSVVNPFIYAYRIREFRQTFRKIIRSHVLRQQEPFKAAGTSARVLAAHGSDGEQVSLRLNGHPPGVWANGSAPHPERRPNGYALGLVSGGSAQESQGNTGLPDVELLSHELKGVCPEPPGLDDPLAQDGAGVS

On to `CCCCC#Cc1nc(N)c2nc(-c3ccco3)n([C@@H]3OC[C@@H](O)[C@H]3O)c2n1` [5a, (2R,3R,4R)-2-(6-Amino-8-(furan-2-yl)-2-(hex-1-yn-1-yl)-9H-purin-9-yl)tetrahydrofuran-3,4-diol], for which the “hA3AR activation” value at hA3AR is “inhibited hA3AR activation”. In addition, the “receptor activation / antagonism at hA2AAR” value on hA2AAR is recorded as “no receptor activation”.

On to `CCCCC#Cc1nc(N)c2nc(-c3cccs3)n([C@@H]3OC[C@@H](O)[C@H]3O)c2n1` [5d, (2R,3R,4R)-2-(6-Amino-2-(hex-1-yn-1-yl)-8-(thiophen-2-yl)-9H-purin-9-yl)tetrahydrofuran-3,4-diol], for which the CYP2D6 inhibition result on CYP2D6 was “did not significantly inhibit”. Besides, the “hERG K+ channel inhibition” value on hERG K+ channels is “did not significantly inhibit”. For the same compound, the CYP1A2 inhibition entry at CYP1A2 is given as “did not significantly inhibit”. For the same compound, the CYP2C9 inhibition result at CYP2C9 is “did not significantly inhibit”. Moreover, the “adverse effects / body weight loss” value in the data set with 4T1-Luc tumors is “No adverse effects or body weight loss; also recorded: without any adverse effects and body weight loss”. Further, the CYP3A4 inhibition result on CYP3A4 is listed as “did not significantly inhibit”. Further, on CYP2C19, the CYP2C19 inhibition result is recorded as “did not significantly inhibit”.
